# Data: patent publication US4576951A, “Proglumide, pharmaceutical preparations and compositions including it for use in human pain relief” (priority 1983, dated 1986)
# Like-named read-outs stand apart in the source and are kept apart here.
# Experiments:
# [1] = type: in vivo, rats
# Method: The method is that described by Harris et al. (J. Pharmcol. Exp. Ther. 143 (1964) 141-148).
# Male rats are used which have a weight of about 150-200 g and which have not been fasting. A point is chosen on the tail and this is irradiated by a heat source (75° C.) and the time (in seconds) for which the animal remains without moving its tail is measured.
# A maximum period of time under the heat source of 8 seconds is chosen after which the animal is, in any case, removed in order to avoid tissue damage. The measurement is effected before (controls) and after treatment with the drugs. […] The percentage variation is calculated for each individual animal by the following formula: [formula] (time measurements are in seconds)
# The measurements are carried out 10, 20, 30, 45, 60 and 90 minutes after treatment with the analgesics.
# [2] = Hot plate test: potentiation of analgesic activity of opiates; type: in vivo, rats; conditions: proglumide 5 mg/kg s.c.
# Method: The method is that described by Eddy et al. (J. Pharmac. Exp. Therm. 107, 385 (1953)).
# Groups of five male rats having a weight of about 150 g and which have not been fasting are used.
# The animals are placed on a metal plate which is on the bottom of a transparent cylinder heated to 55°±1° C. by an azeotropic boiling mixture (1:1 acetone-ethyl formate). The time which passes between the moment at which the animal is placed on the hot plate and the moment at which it licks its feet or tries to jump out of the cylinder is defined as the reaction time. The control reaction time is measured 10 and 5 minutes before the administration of the drugs and 10, 20, 30, 45, 60, 90 minutes afterwards. The animals are left on the plate for a maximum period of 30 seconds. The response to the administration of the product is considered positive if at least a doubling of the normal reaction time is seen. The results obtained are given in Table 2 which records the groups treated, the doses administered and the stay times on the plate expressed as the number of positive responses over the number treated.
# [3] = Tail Flick Test after transcutaneous shock: analgesic activity of endogenous opiates; type: in vivo, rats
# Method: Influence of proglumide on the analgesic activity of endogenous opiates released under transcutaneous shock in rats measured by the Tail Flick Test The method is that described by Lewis et al. (J. Naurosc. 1, 358 (1981)). Male rats having a weight of about 200 g, which have not been fasting, are used. The animals are stressed by the application to the front leg of a 60 Hz-2.5 mA current in pulses of a duration of one second every five seconds for 20 minutes. This stress regime causes the release of endogenous opiates.
# [4] = type: in vivo, rats; remark: listed apart in the source
# Method: Activity of proglumide as an antagonist to the tolerance induced by opiates
# Groups of five male rats having a weight of about 200-250 g were used.
# The determination of the pain threshold was effected 1, 3, 6, 9 and 12 hours after the first treatment by the Tail Flick test.
# The data given in Table 5 indicate the percentage variations in the latency (appearance of pain) before and after treatment with the drugs.
# [5] = Potentiation of analgesic effect of enkephalinamide (DALA) i.c.v. (Tail Flick test); type: in vivo, rats
# Method: Potentiation of the analgesic activities of enkephalins induced by proglumide
# In order to check one of the possible mechanisms for the action of proglumide, that is its possible inhibition of the enzymatic degradation of endogenous enkephalins, the following experiment was carried out:
# A cannula was implanted in the right lateral ventricle of male rats having a weight of 150-200 g (groups of five animals were used) in order to allow the intracerebroventricular (I.C.V.) administration of drugs according to the method of Noble et al (Life Science 6, (1970) 281-291). […]
# in vivo = conditions: mouse, sc
# Method: The drug (or drugs) under examination was administered sub-cutaneously. The animals were kept under observation for 15 days after the administration.
# Ten animals were used for each dose.
# [6] = 1 min, proglumide 20 mg/kg, no stress
# [7] = 1 min, stress + proglumide 1 mg/kg
# [8] = 1 min, stress + proglumide 5 mg/kg
# [9] = 1 min, stress + proglumide 20 mg/kg
# [10] = 5 min, proglumide 20 mg/kg, no stress
# [11] = 5 min, stress + proglumide 1 mg/kg
# [12] = 5 min, stress + proglumide 5 mg/kg
# [13] = 5 min, stress + proglumide 20 mg/kg
# [14] = 10 min, proglumide 20 mg/kg, no stress
# [15] = 10 min, stress + proglumide 1 mg/kg
# [16] = 10 min, stress + proglumide 5 mg/kg
# [17] = 10 min, stress + proglumide 20 mg/kg
# [18] = 15 min, proglumide 20 mg/kg, no stress
# [19] = 15 min, stress + proglumide 1 mg/kg
# [20] = 15 min, stress + proglumide 5 mg/kg
# [21] = 15 min, stress + proglumide 20 mg/kg
compound,measurement,setting,value
"CCCN(CCC)C(=O)C(CCC(=O)O)NC(=O)c1ccccc1 (racemic) [Proglumide, D,L-4-benzamido-N, N-dipropylglutaramic acid]",ED50 for potentiation of the analgesic effect (proglumide increasing effect by 50%),"[1]; rat, in vivo, ip",4.15 mg/kg
same,ED50 for potentiation of the analgesic effect (proglumide increasing effect by 50%),[1]; strengthening of propoxyphene,2.26 mg/kg
same,increase of the analgesic effect of morphine and methadone,[2],at least double
same,Average latency (tail flick),[3]; [6],3.66 ± 0.25 s
same,t (vs control stress),[3]; [6],6.90
same,t (vs control),[3]; [6],0.37
same,t (vs control stress),[3]; [7],0.92
same,t (vs control),[3]; [7],5.21
same,t (vs control stress),[3]; [8],0.87
same,t (vs control),[3]; [8],4.25
same,t (vs control stress),[3]; [9],6.14
same,t (vs control),[3]; [9],9.54
same,Average latency (tail flick),"[3]; 1 min after shock, stress + proglumide 1 mg/kg",6.37 ± 0.45 s
same,Average latency (tail flick),"[3]; 1 min after shock, stress + proglumide 5 mg/kg",6.33 ± 0.57 s
same,Average latency (tail flick),"[3]; 1 min after shock, stress + proglumide 20 mg/kg",13.59 ± 1.0 s
same,Average latency (tail flick),[3]; [10],3.59 ± 0.20 s
same,t (vs control stress),[3]; [10],5.88
same,t (vs control),[3]; [10],1.36
same,t (vs control stress),[3]; [11],0.69
same,t (vs control),[3]; [11],5.18
same,t (vs control stress),[3]; [12],2.74
same,t (vs control),[3]; [12],5.62
same,t (vs control stress),[3]; [13],3.90
same,t (vs control),[3]; [13],7.29
same,Average latency (tail flick),"[3]; 5 min after shock, stress + proglumide 1 mg/kg",6.55 ± 0.43 s
same,Average latency (tail flick),"[3]; 5 min after shock, stress + proglumide 5 mg/kg",8.5 ± 0.76 s
same,Average latency (tail flick),"[3]; 5 min after shock, stress + proglumide 20 mg/kg",9.16 ± 0.67 s
same,Average latency (tail flick),[3]; [14],3.57 ± 0.16 s
same,t (vs control stress),[3]; [14],2.57
same,t (vs control),[3]; [14],0.12
same,t (vs control stress),[3]; [15],0.86
same,t (vs control),[3]; [15],1.83
same,t (vs control stress),[3]; [16],0.72
same,t (vs control),[3]; [16],2.98
same,t (vs control stress),[3]; [17],5.01
same,t (vs control),[3]; [17],7.02
same,Average latency (tail flick),"[3]; 10 min after shock, stress + proglumide 1 mg/kg",4.07 ± 0.22 s
same,Average latency (tail flick),"[3]; 10 min after shock, stress + proglumide 5 mg/kg",4.66 ± 0.32 s
same,Average latency (tail flick),"[3]; 10 min after shock, stress + proglumide 20 mg/kg",6.94 ± 0.44 s
same,Average latency (tail flick),[3]; [18],3.57 ± 0.15 s
same,t (vs control stress),[3]; [18],0.04
same,t (vs control),[3]; [18],1.49
same,t (vs control stress),[3]; [19],0.43
same,t (vs control),[3]; [19],0.82
same,t (vs control stress),[3]; [20],0.98
same,t (vs control),[3]; [20],0.11
same,t (vs control stress),[3]; [21],3.34
same,t (vs control),[3]; [21],2.89
same,Average latency (tail flick),"[3]; 15 min after shock, stress + proglumide 1 mg/kg",3.68 ± 0.16 s
same,Average latency (tail flick),"[3]; 15 min after shock, stress + proglumide 5 mg/kg",3.81 ± 0.16 s
same,Average latency (tail flick),"[3]; 15 min after shock, stress + proglumide 20 mg/kg",4.78 ± 0.32 s
same,effect on the analgesic effect of endogenous enkephalins,[3]; proglumide 5 mg/kg,can increase (in one case significantly)
same,effect on the analgesic effect of endogenous enkephalins,[3]; proglumide 20 mg/kg,significantly more marked both in intensity and duration
same,antagonism of development of tolerance,[4]; proglumide 20 mg/kg,highly significant
same,effect on development of tolerance induced by morphine,"[4]; rat, in vivo, ip",opposes the development of tolerance
same,% variation in the latency to pain,"[5]; 5 min, alone i.c.v.: proglumide 1 or DALA 10 μg/kg",18.06 ± 10.8%
same,% variation in the latency to pain,"[5]; 15 min, alone i.c.v.: proglumide 1 or DALA 10 μg/kg",2.18 ± 10.6%
same,% variation in the latency to pain,"[5]; 30 min, alone i.c.v.: proglumide 1 or DALA 10 μg/kg",18.36 ± 5.9%
same,% variation in the latency to pain,"[5]; 45 min, alone i.c.v.: proglumide 1 or DALA 10 μg/kg",-10.94 ± 14.5%
same,% variation in the latency to pain,"[5]; 60 min, alone i.c.v.: proglumide 1 or DALA 10 μg/kg",-5.58 ± 8.1%
same,% variation in the latency to pain,"[5]; 90 min, alone i.c.v.: proglumide 1 or DALA 10 μg/kg",13.3 ± 8.4%
same,Average (0 → 90) % variation in the latency to pain,[5]; alone i.c.v.: proglumide 1 or DALA 10 μg/kg,5.9 ± 5.12%
same,action on the analgesic effect of the enkephalinamide (DALA),[5]; i.c.v.,potentiating action of proglumide on the analgesic effect of the enkephalinamide (DALA) both in intensity and duration
same,significance of potentiating action on DALA analgesia,[5]; proglumide 1 μg/kg,highly significant
same,LD50 at 360 h,in vivo,> 5000 mg/kg
